Experimental data as given in doi:10.1101/2021.05.10.443505v2 (biorxiv, 2021).

Target: T1, human ID2 protein (Homo sapiens, UniProt Q02363)
T1 sequence (Q02363 1-134): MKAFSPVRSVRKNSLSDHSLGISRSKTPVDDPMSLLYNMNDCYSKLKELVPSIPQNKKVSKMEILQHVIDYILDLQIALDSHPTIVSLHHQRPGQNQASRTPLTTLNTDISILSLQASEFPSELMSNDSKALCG
Experiment: SPR
Type: binding

O=C(CC1(O)C(=O)N(Cc2cccc(Cl)c2)c2ccccc21)c1ccccn1 (stereo not shown) [AK-778-XXMU]
Kd: 0.129 µM
